According to ChEMBL document CHEMBL1201862, “PubChem BioAssay data set” (2004):
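Briefly, cells in 96-well plates were exposed to five compound concentrations for 48 h, and endpoints were estimated by linear interpolation. Here, GI50 denotes the concentration required for 50% inhibition of growth.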 Activity calls are given as the source filed them. No stated cut-off is given here; in the data, active = GI50 up to about 1.1 µM and inactive = higher.

How the values were obtained:
Experiment in all cases: growth of human tumour cells (NCI), 48 h
NCI/ADR-RES = system: NCI/ADR-RES
MDA-MB-435 = system: MDA-MB-435
SN12C = system: SN12C
HCT-116 = system: HCT-116
ACHN = system: ACHN
MOLT-4 = system: MOLT-4
T47D = system: T47D
HOP-62 = system: HOP-62
M14 = system: M14
HT-29 = system: HT-29
SF-539 = system: SF-539
SF-295 = system: SF-295
MDA-N = system: MDA-N
SK-MEL-2 = system: SK-MEL-2
OVCAR-3 = system: OVCAR-3
A498 = system: A498
K562 = system: K562
SW-620 = system: SW-620
UACC-62 = system: UACC-62
IGROV-1 = system: IGROV-1

Measured: GI50

CN1C(=O)C23CCCC2CC1(c1ccccc1)S3 (stereo not given)
inactive: NCI/ADR-RES 64.9 µM | MDA-MB-435 > 100 µM | SN12C > 100 µM | HCT-116 > 100 µM | ACHN > 100 µM | MOLT-4 > 100 µM | T47D 54.6 µM | HOP-62 > 100 µM | M14 > 100 µM | HT-29 > 100 µM | SF-539 > 100 µM | SF-295 > 100 µM | MDA-N > 100 µM | SK-MEL-2 49.7 µM | OVCAR-3 > 100 µM | A498 > 100 µM | K562 > 100 µM | SW-620 > 100 µM | UACC-62 > 100 µM | IGROV-1 > 100 µM

CC(C)(C)[Si](C)(C)OCC1OC(n2cnc3c(=O)[nH]cnc32)CC1O (stereo not given)
inactive: NCI/ADR-RES > 100 µM | MDA-MB-435 > 100 µM | SN12C > 100 µM | HCT-116 > 100 µM | ACHN > 100 µM | MOLT-4 > 100 µM | T47D > 100 µM | HOP-62 > 100 µM | M14 > 100 µM | HT-29 > 100 µM | SF-539 > 100 µM | SF-295 > 100 µM | MDA-N > 100 µM | SK-MEL-2 > 100 µM | OVCAR-3 > 100 µM | A498 > 100 µM | K562 > 100 µM | SW-620 > 100 µM | UACC-62 > 100 µM | IGROV-1 > 100 µM

CC(NC(NC(C)C12CC3CC(CC(C3)C1)C2)=C(C(Cl)=C(Cl)Cl)[N+](=O)[O-])C12CC3CC(CC(C3)C1)C2 (stereo not given)
inactive: NCI/ADR-RES 12 µM | MDA-MB-435 27.2 µM | SN12C 7.59 µM | HCT-116 9.04 µM | ACHN 28.2 µM | MOLT-4 19.5 µM | T47D 20.4 µM | HOP-62 32.7 µM | M14 16.4 µM | HT-29 4.62 µM | SF-539 20.9 µM | SF-295 24.9 µM | MDA-N 22.7 µM | SK-MEL-2 15 µM | OVCAR-3 9.71 µM | A498 36.1 µM | K562 9.08 µM | SW-620 17.6 µM | UACC-62 30 µM | IGROV-1 8.02 µM
